According to patent US10253052B2, “HBED-bisphosphonates, radiometal conjugates and their use as theranostic agents” (Five Eleven Pharma Inc., priority 2015, dated 2019):
Several values for one entry are separate records, joined by “and”; a condition that tells them apart may be missing. Identical values can stand only once. Entries after “also recorded” stand apart in the source; their conditions may differ.

How the values were obtained:
[1] = In vitro binding to hydroxyapatite; conditions: 20 mg hydroxyapatite in saline, 10 min at room temperature
In short: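 Hydroxyapatite was pre-incubated 24 h in isotonic saline, then ^68Ga-labelled compound (1 μCi) was added and incubated 10 min at room temperature. After centrifugation and two saline washes, gamma counting of supernatants and solid gave percent ^68Ga bound to hydroxyapatite.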

[2] = In vivo biodistribution in mice; parameters: species or system normal CD-1 male mice; conditions: for bone to blood ratio / bone to muscle ratio / Biodistribution: Blood / Biodistribution: Bone / Biodistribution: Brain / Biodistribution: Heart / Biodistribution: Kidney / Biodistribution: Liver / Biodistribution: Lung / Biodistribution: Muscle / Biodistribution: Pancreas / Biodistribution: Skin / Biodistribution: Spleen: iv; for Biodistribution result in words (organ uptake, retention, excretion): normal mice after iv injection
In short: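 Normal male CD-1 mice (25-30 g) received 20-30 μCi of ^68Ga-labelled tracer or [^18F]NaF intravenously and were sacrificed at 2, 30, 60 and 120 min. Harvested organs, with tibia and femur as bone, were weighed and gamma-counted; uptake is expressed as % ID/g wet tissue.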

## O=C([O-])CN(CCN(CC(=O)[O-])Cc1cc(CCC(=O)NC(P(=O)(O)O)P(=O)(O)O)ccc1[O-])Cc1cc(CCC(=O)NCCNC(=O)CN2CCN(CC(=O)O)CCN(CC(=O)O)CCN(CC(=O)O)CC2)ccc1[O-].[68Ga+3] [[^68Ga]1h]
[1]
  Hydroxyapatite Binding (%): 96.7 ± 0.9%
[2]; 2 min
  bone to blood ratio: 0.9
  bone to muscle ratio: 4.3
[2]; 2 min post injection
  Biodistribution: Blood: 9.69 ± 1.49 % dose/g
  Biodistribution: Bone: 8.31 ± 0.84 % dose/g
  Biodistribution: Brain: 0.24 ± 0.03 % dose/g
  Biodistribution: Heart: 3.10 ± 0.35 % dose/g
  Biodistribution: Kidney: 18.2 ± 1.65 % dose/g
  Biodistribution: Liver: 1.99 ± 0.29 % dose/g
  Biodistribution: Lung: 4.35 ± 0.52 % dose/g
  Biodistribution: Muscle: 1.92 ± 0.14 % dose/g
  Biodistribution: Pancreas: 1.48 ± 0.27 % dose/g
  Biodistribution: Skin: 2.31 ± 0.25 % dose/g
  Biodistribution: Spleen: 1.91 ± 0.48 % dose/g
[2]; 30 min
  bone to blood ratio: 27
  bone to muscle ratio: 85
[2]; 30 min (0.5 hr) post injection
  Biodistribution: Blood: 0.45 ± 0.07 % dose/g
  Biodistribution: Bone: 12.1 ± 0.84 % dose/g
  Biodistribution: Brain: 0.02 ± 0.01 % dose/g
  Biodistribution: Heart: 0.24 ± 0.12 % dose/g
  Biodistribution: Kidney: 2.07 ± 0.62 % dose/g
  Biodistribution: Liver: 0.15 ± 0.05 % dose/g
  Biodistribution: Lung: 0.31 ± 0.05 % dose/g
  Biodistribution: Muscle: 0.14 ± 0.04 % dose/g
  Biodistribution: Pancreas: 0.09 ± 0.03 % dose/g
  Biodistribution: Skin: 0.39 ± 0.13 % dose/g
  Biodistribution: Spleen: 0.13 ± 0.03 % dose/g
[2]; 60 min
  bone to blood ratio: 112
  bone to muscle ratio: 233
[2]; 60 min (1 hr) post injection
  Biodistribution: Blood: 0.11 ± 0.05 % dose/g
  Biodistribution: Bone: 11.9±1.3 % dose/g and 11.9 ± 1.31 % dose/g
  Biodistribution: Brain: 0.01 ± 0.00 % dose/g
  Biodistribution: Heart: 0.08 ± 0.01 % dose/g
  Biodistribution: Kidney: 1.13 ± 0.08 % dose/g
  Biodistribution: Liver: 0.07 ± 0.01 % dose/g
  Biodistribution: Lung: 0.14 ± 0.03 % dose/g
  Biodistribution: Muscle: 0.05 ± 0.01 % dose/g
  Biodistribution: Pancreas: 0.05 ± 0.02 % dose/g
  Biodistribution: Skin: 0.11 ± 0.02 % dose/g
  Biodistribution: Spleen: 0.07 ± 0.01 % dose/g
[2]; 120 min
  bone to blood ratio: 305
  bone to muscle ratio: 383
[2]; 120 min post injection
  Biodistribution: Blood: 0.04 ± 0.01 % dose/g
  Biodistribution: Bone: 12.0 ± 0.82 % dose/g
  Biodistribution: Brain: 0.01 ± 0.01 % dose/g
  Biodistribution: Heart: 0.05 ± 0.01 % dose/g
  Biodistribution: Kidney: 1.67 ± 0.54 % dose/g
  Biodistribution: Liver: 0.09 ± 0.04 % dose/g
  Biodistribution: Lung: 0.10 ± 0.01 % dose/g
  Biodistribution: Muscle: 0.03 ± 0.00 % dose/g
  Biodistribution: Pancreas: 0.04 ± 0.01 % dose/g
  Biodistribution: Skin: 0.07 ± 0.01 % dose/g
  Biodistribution: Spleen: 0.07 ± 0.01 % dose/g
[2]
  Biodistribution result in words (organ uptake, retention, excretion): excellent bone uptake and fast kidney excretion

## O=C([O-])CN(CCN(CC(=O)[O-])Cc1cc(CCC(=O)NC(P(=O)(O)O)P(=O)(O)O)ccc1[O-])Cc1cc(CCC(=O)NC(P(=O)(O)O)P(=O)(O)O)ccc1[O-].[68Ga+3] [[^68Ga]2]
[1]
  Hydroxyapatite Binding (%): 90.8 ± 1.5%
[2]; 2 min
  bone to blood ratio: 1.1
  bone to muscle ratio: 4.9
[2]; 2 min post injection
  Biodistribution: Blood: 9.97 ± 1.40 % dose/g
  Biodistribution: Bone: 11.0 ± 1.95 % dose/g
  Biodistribution: Brain: 0.30 ± 0.02 % dose/g
  Biodistribution: Heart: 4.13 ± 0.30 % dose/g
  Biodistribution: Kidney: 19.4 ± 1.38 % dose/g
  Biodistribution: Liver: 2.67 ± 0.12 % dose/g
  Biodistribution: Lung: 5.47 ± 0.57 % dose/g
  Biodistribution: Muscle: 2.26 ± 0.34 % dose/g
  Biodistribution: Pancreas: 2.05 ± 0.23 % dose/g
  Biodistribution: Skin: 3.19 ± 0.45 % dose/g
  Biodistribution: Spleen: 2.08 ± 0.22 % dose/g
[2]; 30 min
  bone to blood ratio: 26
  bone to muscle ratio: 58
[2]; 30 min (0.5 hr) post injection
  Biodistribution: Blood: 0.73 ± 0.28 % dose/g
  Biodistribution: Bone: 18.8 ± 2.82 % dose/g
  Biodistribution: Brain: 0.03 ± 0.00 % dose/g
  Biodistribution: Heart: 0.99 ± 0.13 % dose/g
  Biodistribution: Kidney: 2.98 ± 1.13 % dose/g
  Biodistribution: Liver: 0.44 ± 0.09 % dose/g
  Biodistribution: Lung: 0.96 ± 0.23 % dose/g
  Biodistribution: Muscle: 0.32 ± 0.05 % dose/g
  Biodistribution: Pancreas: 0.36 ± 0.17 % dose/g
  Biodistribution: Skin: 0.71 ± 0.13 % dose/g
  Biodistribution: Spleen: 0.48 ± 0.09 % dose/g
[2]; 60 min
  bone to blood ratio: 42
  bone to muscle ratio: 82.7 and 83
[2]; 60 min (1 hr) post injection
  Biodistribution: Blood: 0.47 ± 0.08 % dose/g
  Biodistribution: Bone: 19.7±4.2 % dose/g and 19.7 ± 4.17 % dose/g
  Biodistribution: Brain: 0.02 ± 0.00 % dose/g
  Biodistribution: Heart: 0.57 ± 0.13 % dose/g
  Biodistribution: Kidney: 2.61 ± 0.95 % dose/g
  Biodistribution: Liver: 0.43 ± 0.03 % dose/g
  Biodistribution: Lung: 0.58 ± 0.09 % dose/g
  Biodistribution: Muscle: 0.24 ± 0.04 % dose/g
  Biodistribution: Pancreas: 0.27 ± 0.01 % dose/g
  Biodistribution: Skin: 0.38 ± 0.05 % dose/g
  Biodistribution: Spleen: 0.43 ± 0.05 % dose/g
[2]; 120 min
  bone to blood ratio: 77
  bone to muscle ratio: 103
[2]; 120 min post injection
  Biodistribution: Blood: 0.31 ± 0.09 % dose/g
  Biodistribution: Bone: 23.9 ± 5.54 % dose/g
  Biodistribution: Brain: 0.02 ± 0.00 % dose/g
  Biodistribution: Heart: 0.42 ± 0.08 % dose/g
  Biodistribution: Kidney: 2.86 ± 1.16 % dose/g
  Biodistribution: Liver: 0.40 ± 0.03 % dose/g
  Biodistribution: Lung: 0.40 ± 0.05 % dose/g
  Biodistribution: Muscle: 0.23 ± 0.05 % dose/g
  Biodistribution: Pancreas: 0.31 ± 0.11 % dose/g
  Biodistribution: Skin: 0.33 ± 0.06 % dose/g
  Biodistribution: Spleen: 0.43 ± 0.24 % dose/g
[2]
  Biodistribution result in words (organ uptake, retention, excretion): excellent bone uptake and fast kidney excretion; also recorded: excellent bone uptake and retention
